# From PMC11901902, “Design, Synthesis, and Cytotoxicity Evaluation of Novel Indolin-2-One Based Molecules on Hepatocellular Carcinoma HepG2 Cells as Protein Kinase Inhibitors” (Molecules, 2025)
# What was measured:
# HepG-2 cells = test: MTT cytotoxicity assay on HepG-2 cells; type: cell-based, human; details: for fold higher cytotoxicity than indirubin: HepG-2 cells, relative to indirubin; for viability at 1.25 µM / viability at 2.5 µM / viability at 5 µM / viability at 10 µM / viability at 20 µM / viability at 40 µM / viability at 80 µM / viability at 160 µM / IC50: Homo sapiens, HepG2; for viability at 1.25 µM: HepG-2, 1.25 µM; for viability at 1.25 µM / viability at 2.5 µM / viability at 5 µM / viability at 10 µM / viability at 20 µM / viability at 40 µM / viability at 80 µM / viability at 160 µM: Table S1; for viability at 2.5 µM: HepG-2, 2.5 µM; for viability at 5 µM: HepG-2, 5 µM; for viability at 10 µM: HepG-2, 10 µM; for viability at 20 µM: HepG-2, 20 µM; for viability at 40 µM: HepG-2, 40 µM; for viability at 80 µM: HepG-2, 80 µM; for viability at 160 µM: HepG-2, 160 µM; for IC50: MTT, 24 h treatment, mean of three experiments ± SEM
# Description: (§1) Cytotoxic activity of the synthesized compounds was evaluated against HepG-2 and MCF-7 cancer cell lines using the MTT assay. The tested cell lines were obtained from the American Type Culture Collection (ATCC, […], USA) through the Tissue Culture Unit, The Egyptian Organization for Biological Products and Vaccines (Vacsera, Giza, Egypt). Indirubin, chemicals, and solvents were purchased from Sigma-Aldrich (St. Louis, MO, USA). The cells were grown on RPMI-1640 medium supplemented with 10% inactivated fetal calf serum and 50 µg/mL gentamycin. The cells were maintained at 37 °C in a humidified atmosphere with 5% CO2 and were sub-cultured two to three times per week. For antitumor assays, the tumor cell lines were suspended in the medium at concentration 5 × 10^4 cell/well in Corning® 96-well tissue culture plates (Corning, Corning, NY, USA), then incubated for 24 h. The tested molecules were then added to 96-well plates (six replicates) to achieve six concentrations for each compound. Six vehicle controls with media or 0.5% DMSO were run for each 96-well plate as a control. After incubating for 24 h, the numbers of viable cells were determined by the MTT test. Briefly, the media was removed from the 96 well plate and replaced with 100 µL of fresh culture RPMI 1640 medium without phenol red then 10 µL of the 12 mM MTT stock solution (5 mg of MTT in 1 mL of PBS) to each well including the untreated controls. The 96-well plates were then incubated at 37 °C and 5% CO2 for 4 h. An 85 µL aliquot of the media was removed from the wells, and 50 µL of DMSO was added to each well, mixed thoroughly with the pipette, and incubated at 37 °C for 10 min. Then, the optical density was measured at 590 nm with the microplate reader (SunRise, TECAN, Inc., Morrisville, NC, USA) to determine the number of viable cells, and the percentage of viability was calculated as […], where ODt is the mean optical density of wells treated with the tested sample and ODc is the mean optical density of untreated cells. The relation between surviving cells and drug concentration was plotted to obtain the survival curve of each tumor cell line after treatment with the specified compound. […] Each concentration was repeated four times.
# CDK-2 = target: T1, CDK-2 (Homo sapiens, UniProt P24941); test: Kinase-Glo Plus luminescence kinase inhibition assay, CDK-2; type: biochemical; details: for IC50: 10 µM ATP, 30 °C, 40 min, mean ± SEM
# T1 construct: purchased BPS Bioscience 41101
# Description: The enzyme inhibition assay for the tested molecules was performed at BPS Bioscience Corporation, San Diego, CA, USA. The following materials served as the enzyme sources, Poly (Glu, Tyr) sodium salt (4:1, Glu:Tyr) (Sigma#P7244) served as the standardized substrate, and the Kinase-Glo Plus Luminescence kinase assay kit (Promega # V3772) was used. […] Glo Plus luminescence kinase assay kits. The assays were performed using Kinase-Glo Plus luminescence (Promega Corporation, Madison, WI, USA).
# The tested molecules 9, 20, and indurbin were diluted to 100 µL in DMSO (10%), and 5 µL of the solution was added to a 50-µL enzyme reaction until the final concentration of DMSO was 1% in all of reactions. The enzymatic reactions were conducted at 30 °C for 40 min. The reaction mixture contained enzyme substrate and respective kinases. After the enzymatic reaction, 50 µL of enzyme-Glo Plus luminescence […] assay solution (Promega) was added to each reaction, and the plate was incubated for 5 min at room temperature. The luminescence signal was measured using a BioTek Synergy 2 microplate reader. The luminescence data were analyzed using the computer software GraphPad Prism. The difference between luminescence intensities in the absence of enzyme (Lut) and in the presence of enzyme (Luc) was defined as 100% activity (Lut − Luc). The values of enzyme activity percentages versus five concentrations of the small molecule were then plotted using a non-linear regression analysis of the sigmoidal dose–response curve. The IC50 value was determined using GraphPad Prism software. All experiments were repeated three times (Table S3).
# Glo Plus luminescence kinase assay kits were used in these assays. The assay was done at Bioscience Laboratory BPS, California, USA. The assay measures kinase activity by quantitating the amount of ATP remaining in the solution following kinase reaction. The luminescent signal from the assay was correlated with the amount of ATP present and inversely correlated with kinase activity. […] All of the enzymatic reactions were conducted at 30 °C for 40 min. The reaction mixture contained 40 mM Tris, pH 7.4, 10 mM MgCl2, 0.1 mg/mL BSA, 1 mM DTT, 10 µM ATP, Kinase substrate, and VEGFR-2, EFGR, CDK-2 and CDK-4 enzymes. After the enzymatic reaction, 50 µL of Kinase-Glo Plus Luminescence kinase assay solution (Promega) was added to each reaction, and the plate was incubated for 5 min at room temperature. The luminescence signal was measured using a BioTek Synergy 2 microplate reader. Kinase activity assays were performed in triplicate for each concentration. The luminescence data were analyzed using the Graphpad Prism software.
# MCF-7 cells = test: MTT cytotoxicity assay on MCF-7 cells; type: cell-based; details: Homo sapiens, MCF7; for viability at 1.25 µM: MCF-7, 1.25 µM; for viability at 1.25 µM / viability at 2.5 µM / viability at 5 µM / viability at 10 µM / viability at 20 µM / viability at 40 µM / viability at 80 µM / viability at 160 µM: Table S2; for viability at 2.5 µM: MCF-7, 2.5 µM; for viability at 5 µM: MCF-7, 5 µM; for viability at 10 µM: MCF-7, 10 µM; for viability at 20 µM: MCF-7, 20 µM; for viability at 40 µM: MCF-7, 40 µM; for viability at 80 µM: MCF-7, 80 µM; for viability at 160 µM: MCF-7, 160 µM; for IC50: MTT, 24 h treatment, mean of three experiments ± SEM, read-out: IC50 (µM) MCF-7
# Description: as §1
SMILES,fold higher cytotoxicity than indirubin (HepG-2 cells),viability at 1.25 µM (HepG-2 cells) [%],viability at 2.5 µM (HepG-2 cells) [%],viability at 5 µM (HepG-2 cells) [%],viability at 10 µM (HepG-2 cells) [%],viability at 20 µM (HepG-2 cells) [%],viability at 40 µM (HepG-2 cells) [%],viability at 80 µM (HepG-2 cells) [%],viability at 160 µM (HepG-2 cells) [%],IC50 (HepG-2 cells) [µM],IC50 (CDK-2) [nM],viability at 1.25 µM (MCF-7 cells) [%],viability at 2.5 µM (MCF-7 cells) [%],viability at 5 µM (MCF-7 cells) [%],viability at 10 µM (MCF-7 cells) [%],viability at 20 µM (MCF-7 cells) [%],viability at 40 µM (MCF-7 cells) [%],viability at 80 µM (MCF-7 cells) [%],viability at 160 µM (MCF-7 cells) [%],IC50 (MCF-7 cells) [µM],further results
"O=C1Nc2ccc(Cl)cc2C1=Nc1ccc2nc[nH]c(=O)c2c1 [Compound 9, 6-(5-Chloro-2-oxo-1,2-dihydro-indol-3-ylideneamino)-3H-quinazolin-4-one]",2.2–2.7 fold,61.3 ± 3.6,54.4 ± 3.1,34.8 ± 0.9,28.6 ± 2.1,23.1 ± 2.4,19.6 ± 2,16.3 ± 1.7,12.9 ± 1.5,2.53 ± 0.11,9.39 ± 0.51,90.5 ± 7.8,72.8 ± 6.3,64.1 ± 4.5,49 ± 2,34.4 ± 0.2,18.2 ± 1,14.8 ± 1.3,8.7 ± 1.2,7.54 ± 0.71,fold higher inhibitory effect than indirubin against CDK-2 (CDK-2; relative to indirubin): 4.8 fold
"O=C1Nc2ccc(Cl)cc2C1=Nc1ccc(-c2nc3ccccc3c(=O)[nH]2)cc1 [Compound 20, 2-[4-(5-Chloro-2-oxo-1,2-dihydro-indol-3-ylideneamino)-phenyl]-3H-quinazolin-4-one]",2.2–2.7 fold,58.2 ± 3.3,52.1 ± 2.9,36.7 ± 1.2,29.4 ± 2.5,21.7 ± 2,18.4 ± 1.8,15.2 ± 1.5,11.8 ± 1.3,3.08 ± 0.35,225 ± 12.6,92.4 ± 5.7,84.3 ± 4.8,76.7 ± 4.2,67.9 ± 3.4,47.1 ± 3,24.6 ± 1.9,7.77 ± 0.9,4.1 ± 0.1,5.28 ± 0.22,
